These results are taken from ChEMBL document CHEMBL1152055, “Synthesis and biological evaluation of four stereoisomers of PDMP-analogue, N-(2-decylamino-3-hydroxy-3-phenylprop-1-yl)--valienamine, and related compounds” (Bioorg Med Chem Lett, 1997).

As usually defined, the IC50 is the concentration that gives 50% inhibition. A lower IC50 goes with greater potency.

Assay [1] has as its target T1, Ceramide glucosyltransferase (Homo sapiens, UniProt Q16739).
T1 sequence (Q16739 whole entry): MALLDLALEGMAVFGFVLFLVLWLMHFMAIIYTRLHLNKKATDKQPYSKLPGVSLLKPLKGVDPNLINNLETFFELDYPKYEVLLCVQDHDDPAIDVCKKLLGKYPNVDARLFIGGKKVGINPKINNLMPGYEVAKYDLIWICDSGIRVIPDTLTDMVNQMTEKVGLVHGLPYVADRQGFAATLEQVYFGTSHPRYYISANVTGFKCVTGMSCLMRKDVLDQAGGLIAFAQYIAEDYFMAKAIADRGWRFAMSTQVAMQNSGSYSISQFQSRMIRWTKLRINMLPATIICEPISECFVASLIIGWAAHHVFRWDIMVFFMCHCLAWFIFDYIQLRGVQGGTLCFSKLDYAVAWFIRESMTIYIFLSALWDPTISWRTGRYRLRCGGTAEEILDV
Briefly: Compound tested for inhibitory activity against glucosylceramide synthase enzyme.

For assay [2], the target named is T2, Lysosomal acid glucosylceramidase (Mus musculus, UniProt P17439).
T2 sequence (P17439 whole entry): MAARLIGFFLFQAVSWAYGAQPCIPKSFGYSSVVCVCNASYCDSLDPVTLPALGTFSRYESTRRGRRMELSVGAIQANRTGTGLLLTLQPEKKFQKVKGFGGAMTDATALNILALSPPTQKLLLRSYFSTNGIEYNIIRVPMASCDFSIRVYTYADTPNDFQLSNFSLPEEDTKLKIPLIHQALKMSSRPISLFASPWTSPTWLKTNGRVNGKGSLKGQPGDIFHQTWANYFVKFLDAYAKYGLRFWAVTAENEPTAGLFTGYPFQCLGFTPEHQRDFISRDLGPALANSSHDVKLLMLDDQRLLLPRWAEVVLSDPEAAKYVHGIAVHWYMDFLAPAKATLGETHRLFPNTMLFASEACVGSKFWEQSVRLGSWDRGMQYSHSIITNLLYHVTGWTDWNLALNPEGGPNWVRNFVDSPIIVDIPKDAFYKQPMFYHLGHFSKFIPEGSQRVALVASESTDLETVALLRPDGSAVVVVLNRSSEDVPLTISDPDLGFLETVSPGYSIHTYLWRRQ
Briefly: Compound tested for inhibitory activity against beta-glucocerebrosidase enzyme at a concentration of 1.0*10e-4M; no inhibitory activity.

In assay [3] the target is T1, Ceramide glucosyltransferase. The assay is described as follows: Compound tested for inhibitory activity against glucosylceramide synthase enzyme at a concentration of 1.0*10e-4M; no inhibitory activity.
For assay [4], the target named is T2, Lysosomal acid glucosylceramidase. The assay is described as follows: Compound tested for inhibitory activity against beta-glucocerebrosidase enzyme.

With `CCCCCCCCCC(=O)N[C@H](CN1CCOCC1)[C@H](O)c1ccccc1`, the values for the IC50 in assay [1] and in assay [2] were 23 µM and “No inhibition”, respectively.
Consider `CCCCCCCCCC(=O)N[C@H](CN[C@@H]1C=C(CO)[C@@H](O)[C@H](O)[C@@H]1O)[C@H](O)c1ccccc1`, for which the IC50 result in assay [3] was “No inhibition”; in assay [4], 0.7 µM.
For `CCCCCCCCCC(=O)N[C@H](CNC1CC(CO)C(O)C(O)C1O)[C@H](O)c1ccccc1` (stereo not given in full), in that order: “No inhibition” and 10 µM.
For `CCCCCCCCCC(=O)N[C@H](CN[C@@H]1C=C(CO)[C@@H](O)[C@H](O)[C@@H]1O)[C@@H](O)c1ccccc1` the same measures were “No inhibition” and 0.7 µM.
For `CCCCCCCCCC(=O)N[C@@H](CN[C@@H]1C=C(CO)[C@@H](O)[C@H](O)[C@@H]1O)[C@@H](O)c1ccccc1`, in that order: “No inhibition” and 0.3 µM.
For `CCCCCCCCCC(=O)N[C@H](CNC1CC(CO)C(O)C(O)C1O)[C@@H](O)c1ccccc1` (stereo not given in full), the half-inhibitory concentration (IC50) result in assay [3] was “No inhibition”; in assay [4] it was 7 µM.
For `CCCCCCCCCC(=O)N[C@@H](CN[C@@H]1C=C(CO)[C@@H](O)[C@H](O)[C@@H]1O)[C@H](O)c1ccccc1`, in that order: “No inhibition” and 0.5 µM.
With `CCCCCCCCCC(=O)N[C@@H](CNC1CC(CO)C(O)C(O)C1O)[C@H](O)c1ccccc1` (stereo not given in full), the IC50 result is “No inhibition” in assay [3] and 5 µM in assay [4].
For `CCCCCCCCCC(=O)N[C@@H](CNC1CC(CO)C(O)C(O)C1O)[C@@H](O)c1ccccc1` (stereo not given in full), the 50% inhibitory concentration (IC50) entry was “No inhibition” in assay [3] and 20 µM in assay [4].
With `CCCCCCCCCC(=O)N[C@H](CN[C@H]1C=C(CO)[C@@H](O)[C@H](O)[C@@H]1O)[C@H](O)c1ccccc1`, the IC50 result in assay [3] and in assay [2] was “No inhibition” throughout.
